The term CC50 denotes the concentration giving 50% cytotoxicity. As a reminder, the IC50 is the concentration at which inhibition is half-maximal. The AC50 is the midpoint of the concentration-response curve, whichever way the signal moves. As usually defined, the EC50 is the midpoint of the concentration-response curve.

The test system of assay [1] is Vero. Kind of assay: cells. The settings on record: Chlorocebus sabaeus. Type of assay: functional.
The target in assay [2] is C-C chemokine receptor type 6 (Homo sapiens, UniProt P51684). Description: CCR6 receptor antagonists, dose response, cell-based, luminescent beta-arrestin readout (AID 504728). Type of assay: functional.
A further assay has as its target Beta-galactosidase (Escherichia coli, UniProt Q8VNN2). Description: beta-galactosidase enzyme inhibitors and activators, dose response, artefact control for CCR6 antagonist project, biochemical, E. coli enzyme, set 3 (AID 504712). Type of assay: functional.
The target in assay [3] is Heat shock protein HSP 90-alpha (Homo sapiens, UniProt P07900). Type of assay: functional, organism-based.
Assay [4] addresses Neurotensin receptor type 1 (Homo sapiens, UniProt P30989). It is filed as functional.
The target in another assay is Bcl-2-like protein 10 (Homo sapiens, UniProt Q9HD36). Kind of assay: displacers of TR3 peptide from Bcl-B, primary screen, selectivity assay for Bfl-1 inhibitor project, biochemical, fluorescence polarization, FITC-TR3 peptide (AID 748). For orientation: Fluorescence polarisation rises when a labelled molecule tumbles more slowly, as on binding a larger partner.
Assay [5] is described as follows: HepG2 cell cytotoxicity, dose response, cytotoxicity control for non-replicating M. tuberculosis project (AID 489018). It is filed as functional. As to conditions: Mycobacterium tuberculosis.
The test system of assay [6] is Streptococcus sp. 'group A'. Description: growth inhibition of control SK(-) GAS strain, dose response, counter-screen for streptokinase expression inhibitor project, luminescence, kanamycin, BacTiterGlo, confirmation (AID 1900). Type of assay: functional, organism-based.
A short description of assay [7]: THP-1 cell cytotoxicity, dose response, cytotoxicity control for non-replicating M. tuberculosis project (AID 489025). It is filed as functional.
In the next assay the test system is Streptococcus. Kind of assay: Group A Streptococcus viability loss, dose response, counter-screen for streptokinase expression inhibitor project, luminescence, BacTiterGlo (AID 1915).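 Note: potency for reduction of bacterial viability or growth.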 It is filed as functional, organism-based. The settings on record: read-out: EC50.
A short description of assay [8]: Vero E6 cell cytotoxicity, dose response, cytotoxicity control for non-replicating M. tuberculosis project, secondary assay (AID 492998). It is filed as functional, VeroE6. As to conditions: Vero C1008.
A further assay can be described thus: cells. It is filed as functional.
The target of assay [9] is Luciferin 4-monooxygenase (Photinus pyralis, UniProt P08659). Description: firefly luciferase enzyme inhibitors, dose response, biochemical, luminescence (AID 1891).
For another assay, the target named is T1, Hexokinase HKDC1 (Homo sapiens, UniProt Q2TB90).
T1 sequence (Q2TB90 whole entry): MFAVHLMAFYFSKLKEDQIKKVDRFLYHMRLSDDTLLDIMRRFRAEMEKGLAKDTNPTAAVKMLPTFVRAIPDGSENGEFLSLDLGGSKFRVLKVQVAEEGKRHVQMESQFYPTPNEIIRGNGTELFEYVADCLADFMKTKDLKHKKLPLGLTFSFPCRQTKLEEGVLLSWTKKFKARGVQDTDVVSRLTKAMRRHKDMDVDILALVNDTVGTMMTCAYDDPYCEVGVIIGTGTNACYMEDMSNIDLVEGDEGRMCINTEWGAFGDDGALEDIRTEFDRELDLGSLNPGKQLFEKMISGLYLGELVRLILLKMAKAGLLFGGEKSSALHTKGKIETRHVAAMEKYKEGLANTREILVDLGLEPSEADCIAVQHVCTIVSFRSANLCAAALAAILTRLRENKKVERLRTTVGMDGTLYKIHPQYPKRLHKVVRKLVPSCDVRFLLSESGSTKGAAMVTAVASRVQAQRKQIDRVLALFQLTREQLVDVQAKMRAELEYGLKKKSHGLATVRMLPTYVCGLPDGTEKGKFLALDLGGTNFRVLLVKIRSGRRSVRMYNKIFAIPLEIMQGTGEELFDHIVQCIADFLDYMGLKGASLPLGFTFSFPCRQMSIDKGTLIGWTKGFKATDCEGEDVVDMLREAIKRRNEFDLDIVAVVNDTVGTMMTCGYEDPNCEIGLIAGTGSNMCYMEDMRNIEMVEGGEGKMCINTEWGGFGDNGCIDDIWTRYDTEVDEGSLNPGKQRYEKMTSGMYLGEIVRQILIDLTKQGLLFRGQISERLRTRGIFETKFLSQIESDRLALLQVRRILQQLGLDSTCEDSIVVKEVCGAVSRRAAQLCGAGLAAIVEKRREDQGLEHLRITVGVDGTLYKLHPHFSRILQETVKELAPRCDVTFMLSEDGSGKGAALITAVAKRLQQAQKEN
Kind of assay: HKDC1 hexokinase inhibitors, dose response, biochemical, W721R variant (AID 504729). Type of assay: functional.

Assay [10] can be described thus: Luminescence Cell-Based Dose Confirmation HTS to Identify Inhibitors of Platelet Dense Granule Release. [Related pubchem assays: 1663 (Primary HTS), 1678 (Summary of Project)]. Type of assay: functional.
For assay [11], the target named is T2, Eukaryotic translation initiation factor 2-alpha kinase 3 (Homo sapiens, UniProt Q9NZJ5).
T2 sequence (Q9NZJ5 whole entry): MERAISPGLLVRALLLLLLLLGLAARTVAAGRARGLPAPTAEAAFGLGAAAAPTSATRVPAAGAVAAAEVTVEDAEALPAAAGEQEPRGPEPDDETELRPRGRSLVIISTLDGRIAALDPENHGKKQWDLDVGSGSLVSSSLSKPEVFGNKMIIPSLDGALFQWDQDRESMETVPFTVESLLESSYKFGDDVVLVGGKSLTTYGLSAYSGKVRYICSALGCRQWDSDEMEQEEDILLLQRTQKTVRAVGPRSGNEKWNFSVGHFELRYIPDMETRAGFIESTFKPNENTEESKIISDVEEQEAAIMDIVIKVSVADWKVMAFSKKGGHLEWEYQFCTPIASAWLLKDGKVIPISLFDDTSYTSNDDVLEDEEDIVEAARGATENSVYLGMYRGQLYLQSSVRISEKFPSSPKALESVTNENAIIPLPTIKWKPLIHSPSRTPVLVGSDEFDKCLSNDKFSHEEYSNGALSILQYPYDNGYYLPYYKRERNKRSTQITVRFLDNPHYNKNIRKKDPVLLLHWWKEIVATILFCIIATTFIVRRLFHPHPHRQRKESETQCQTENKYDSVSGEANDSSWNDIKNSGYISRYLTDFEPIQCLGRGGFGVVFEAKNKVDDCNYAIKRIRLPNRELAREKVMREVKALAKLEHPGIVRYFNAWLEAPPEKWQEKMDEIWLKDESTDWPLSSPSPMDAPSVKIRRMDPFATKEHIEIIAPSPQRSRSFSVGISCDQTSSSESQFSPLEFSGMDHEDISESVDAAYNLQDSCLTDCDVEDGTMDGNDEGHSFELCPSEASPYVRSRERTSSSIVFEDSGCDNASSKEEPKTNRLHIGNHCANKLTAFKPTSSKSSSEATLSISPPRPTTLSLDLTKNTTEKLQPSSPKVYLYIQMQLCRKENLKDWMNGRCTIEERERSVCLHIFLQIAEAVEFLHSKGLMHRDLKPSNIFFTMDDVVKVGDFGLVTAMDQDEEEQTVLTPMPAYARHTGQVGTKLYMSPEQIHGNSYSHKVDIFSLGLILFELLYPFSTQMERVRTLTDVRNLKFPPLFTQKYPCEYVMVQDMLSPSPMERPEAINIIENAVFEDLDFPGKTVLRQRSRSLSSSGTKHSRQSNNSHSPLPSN
Kind of assay: Dose response cell-based high-throughput screening assay to measure PERK inhibition. [Related pubchem assays: 1416 ]. Type of assay: functional.

The target in assay [12] is T2, Eukaryotic translation initiation factor 2-alpha kinase 3. Kind of assay: Counterscreen assay for PERK inhibitors: Dose response cell-based high throughput screening assay to measure inhibition of PERK at 6 hours. [Related pubchem assays: 1522, 1416 ]. It is filed as functional. On the technique in general: Counterscreens check selectivity or assay interference.
Assay [13] concerns the target Melanin-concentrating hormone receptor 1 (Homo sapiens, UniProt Q99705). Description: Late-stage fluorescence-based counterscreen for antagonists of the G-protein coupled receptor 7 (GPR7): cell-based dose response assay to identify antagonists of the melanin-concentrating hormone receptor 1 (MCHR1). [Related pubchem assays (depositor defined):AID1861, AID1880, AID1952, AID2148, AID2251, AID2257, AID485339]. Type of assay: functional.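 Note: stimulated with 30 nM MCH peptide agonist.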

Assay [14] has as its system Vero. Description: Vero cell cytotoxicity, cytotoxicity control for flavivirus capping enzyme inhibitors (AID 588742). It is filed as functional. The settings on record: Chlorocebus sabaeus.
The next assay deals with Nonstructural protein 1 (Influenza A virus, UniProt Q194T2). It is filed as functional, Influenza A virus (A/California/07/2009(H1N1)).
A further assay deals with Genome polyprotein (dengue virus type 2, UniProt P29990). Kind of assay: Dengue-2 NS5 methyltransferase inhibitors, primary screen, biochemical, confirmation dose response (AID 588689). Type of assay: functional.
Assay [15] concerns the target T3, Microphthalmia-associated transcription factor (Homo sapiens, UniProt O75030).
T3 sequence (O75030 whole entry): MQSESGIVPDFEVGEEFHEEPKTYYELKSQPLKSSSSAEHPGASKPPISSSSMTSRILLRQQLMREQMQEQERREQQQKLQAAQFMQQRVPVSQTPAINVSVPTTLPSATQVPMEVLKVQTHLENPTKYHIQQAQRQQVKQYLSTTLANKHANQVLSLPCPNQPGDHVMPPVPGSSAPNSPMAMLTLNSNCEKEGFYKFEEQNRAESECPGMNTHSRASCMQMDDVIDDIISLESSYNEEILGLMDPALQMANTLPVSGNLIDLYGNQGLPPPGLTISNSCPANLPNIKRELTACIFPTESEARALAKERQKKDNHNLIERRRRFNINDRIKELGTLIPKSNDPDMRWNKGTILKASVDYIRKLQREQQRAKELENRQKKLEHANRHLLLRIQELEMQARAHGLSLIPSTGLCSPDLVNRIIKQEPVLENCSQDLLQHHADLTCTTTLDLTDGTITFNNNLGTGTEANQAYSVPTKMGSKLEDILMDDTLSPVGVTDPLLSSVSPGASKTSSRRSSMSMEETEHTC
Description: TRPM1 promoter luciferase signal decrease, dose response, MITF inhibitor project, cell-based, SK-MEL-5, cherry-picked, set 3 (AID 493073).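 Note: SK-MEL-5 melanoma cells with luciferase driven by the MITF target TRPM1 promoter.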 It is filed as functional.

For another assay, the target named is T4, Streptokinase A (Streptococcus pyogenes serotype M1, UniProt P10520).
T4 sequence (P10520 whole entry): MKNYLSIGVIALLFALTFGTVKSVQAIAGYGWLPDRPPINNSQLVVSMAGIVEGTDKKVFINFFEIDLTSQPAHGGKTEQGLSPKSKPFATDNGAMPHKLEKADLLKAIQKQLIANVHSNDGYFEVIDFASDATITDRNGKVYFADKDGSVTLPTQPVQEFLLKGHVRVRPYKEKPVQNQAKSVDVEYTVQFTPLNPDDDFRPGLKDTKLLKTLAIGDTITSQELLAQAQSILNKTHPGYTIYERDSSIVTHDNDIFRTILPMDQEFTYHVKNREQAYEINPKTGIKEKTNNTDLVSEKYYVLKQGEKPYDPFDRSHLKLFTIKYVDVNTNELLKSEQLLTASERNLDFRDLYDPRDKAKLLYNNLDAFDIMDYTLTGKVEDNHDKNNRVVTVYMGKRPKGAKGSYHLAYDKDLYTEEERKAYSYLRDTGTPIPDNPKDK
Kind of assay: S. pyogenes streptokinase expression inhibitors, potency, dose response, plasminogen activation absorbance, OD405 (AID 1914).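 Note: secreted streptokinase activity via plasminogen activation per viability signal from cell pellet.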 Type of assay: functional, Streptococcus pyogenes M1 GAS.

Assay [16] is described as follows: THP-1 cell cytotoxicity, dose response, cytotoxicity control for Vif-APOBEC3G degradation inhibitor project, THP-1 cells (AID 1117359). The settings on record: Human immunodeficiency virus 1, THP-1. It is filed as functional.

Molecules are shown by their SMILES. The source made the active and inactive calls.

C-C chemokine receptor type 6, sequence (P51684 whole entry): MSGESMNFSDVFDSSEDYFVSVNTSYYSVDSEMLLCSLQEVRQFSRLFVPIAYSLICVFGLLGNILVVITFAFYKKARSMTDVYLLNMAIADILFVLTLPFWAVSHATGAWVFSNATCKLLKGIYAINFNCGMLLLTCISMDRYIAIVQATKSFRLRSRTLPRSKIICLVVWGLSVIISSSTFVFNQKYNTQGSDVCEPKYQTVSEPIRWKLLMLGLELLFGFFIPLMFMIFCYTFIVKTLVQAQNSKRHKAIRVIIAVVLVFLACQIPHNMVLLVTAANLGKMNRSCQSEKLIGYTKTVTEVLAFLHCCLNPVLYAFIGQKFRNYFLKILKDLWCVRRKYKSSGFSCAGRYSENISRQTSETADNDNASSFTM
Beta-galactosidase, sequence (Q8VNN2 whole entry): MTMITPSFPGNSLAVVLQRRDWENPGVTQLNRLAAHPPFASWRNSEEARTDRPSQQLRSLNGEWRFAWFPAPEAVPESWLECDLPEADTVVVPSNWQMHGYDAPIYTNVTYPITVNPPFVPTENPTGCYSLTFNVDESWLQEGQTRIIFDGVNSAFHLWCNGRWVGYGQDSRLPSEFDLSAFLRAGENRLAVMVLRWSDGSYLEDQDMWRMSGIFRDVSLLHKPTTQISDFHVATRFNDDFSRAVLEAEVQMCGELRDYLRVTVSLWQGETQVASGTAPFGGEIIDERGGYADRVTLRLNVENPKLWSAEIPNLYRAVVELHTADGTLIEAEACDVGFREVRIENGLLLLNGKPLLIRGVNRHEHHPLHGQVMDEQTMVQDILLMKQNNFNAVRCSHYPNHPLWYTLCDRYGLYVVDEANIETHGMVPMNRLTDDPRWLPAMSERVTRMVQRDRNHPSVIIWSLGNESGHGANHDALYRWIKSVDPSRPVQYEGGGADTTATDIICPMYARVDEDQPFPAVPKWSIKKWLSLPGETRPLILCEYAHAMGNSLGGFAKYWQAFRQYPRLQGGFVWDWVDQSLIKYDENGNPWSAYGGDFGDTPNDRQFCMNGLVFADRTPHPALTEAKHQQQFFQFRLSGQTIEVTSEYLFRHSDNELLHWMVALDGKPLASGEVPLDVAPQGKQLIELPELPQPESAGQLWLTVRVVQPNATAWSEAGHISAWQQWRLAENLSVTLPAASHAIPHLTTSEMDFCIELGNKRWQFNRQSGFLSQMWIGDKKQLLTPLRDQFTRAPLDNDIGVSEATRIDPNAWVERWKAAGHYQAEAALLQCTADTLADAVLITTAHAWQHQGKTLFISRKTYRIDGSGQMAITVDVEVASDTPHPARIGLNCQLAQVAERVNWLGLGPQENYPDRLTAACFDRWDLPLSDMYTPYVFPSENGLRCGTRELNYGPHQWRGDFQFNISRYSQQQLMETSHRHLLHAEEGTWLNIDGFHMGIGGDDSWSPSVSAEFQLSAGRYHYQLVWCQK
Neurotensin receptor type 1, sequence (P30989 whole entry): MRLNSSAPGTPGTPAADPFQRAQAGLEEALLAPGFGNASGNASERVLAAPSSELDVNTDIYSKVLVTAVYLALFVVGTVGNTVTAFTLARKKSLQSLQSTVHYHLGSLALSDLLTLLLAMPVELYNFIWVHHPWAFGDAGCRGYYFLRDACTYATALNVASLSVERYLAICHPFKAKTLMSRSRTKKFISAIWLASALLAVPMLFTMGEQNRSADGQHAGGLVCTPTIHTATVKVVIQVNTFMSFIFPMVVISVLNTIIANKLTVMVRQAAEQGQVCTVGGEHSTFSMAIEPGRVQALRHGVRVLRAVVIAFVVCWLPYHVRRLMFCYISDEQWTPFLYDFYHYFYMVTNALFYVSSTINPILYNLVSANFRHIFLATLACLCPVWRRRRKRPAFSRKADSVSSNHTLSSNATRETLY
Bcl-2-like protein 10, sequence (Q9HD36 whole entry): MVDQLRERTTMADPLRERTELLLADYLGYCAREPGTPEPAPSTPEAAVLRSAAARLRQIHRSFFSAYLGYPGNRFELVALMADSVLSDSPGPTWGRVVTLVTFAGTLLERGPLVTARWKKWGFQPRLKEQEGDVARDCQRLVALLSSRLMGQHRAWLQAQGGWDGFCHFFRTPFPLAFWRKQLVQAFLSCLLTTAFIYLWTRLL
Nonstructural protein 1, sequence (Q194T2 whole entry): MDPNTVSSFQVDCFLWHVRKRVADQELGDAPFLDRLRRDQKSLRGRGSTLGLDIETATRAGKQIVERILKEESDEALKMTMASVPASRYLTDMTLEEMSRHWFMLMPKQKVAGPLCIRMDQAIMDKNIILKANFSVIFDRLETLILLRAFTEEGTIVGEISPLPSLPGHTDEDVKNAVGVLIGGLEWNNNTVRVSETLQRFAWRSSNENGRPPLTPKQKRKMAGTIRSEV
Luciferin 4-monooxygenase, sequence (P08659 whole entry): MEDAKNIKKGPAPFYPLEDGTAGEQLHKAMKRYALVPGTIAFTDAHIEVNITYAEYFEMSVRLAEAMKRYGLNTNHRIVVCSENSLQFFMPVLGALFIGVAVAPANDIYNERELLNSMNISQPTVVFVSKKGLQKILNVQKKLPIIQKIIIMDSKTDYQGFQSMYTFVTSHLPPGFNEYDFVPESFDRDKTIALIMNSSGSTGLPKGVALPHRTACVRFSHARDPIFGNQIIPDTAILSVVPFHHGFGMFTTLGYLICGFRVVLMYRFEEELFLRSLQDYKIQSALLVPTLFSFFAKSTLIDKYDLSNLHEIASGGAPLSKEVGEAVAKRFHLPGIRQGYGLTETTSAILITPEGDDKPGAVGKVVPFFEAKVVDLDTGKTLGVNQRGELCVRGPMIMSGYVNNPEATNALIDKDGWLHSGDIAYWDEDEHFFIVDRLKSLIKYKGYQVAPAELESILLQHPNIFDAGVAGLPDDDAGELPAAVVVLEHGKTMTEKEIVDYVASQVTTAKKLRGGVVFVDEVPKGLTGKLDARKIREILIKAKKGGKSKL
Genome polyprotein, sequence (P29990 2492-3391 limits assumed): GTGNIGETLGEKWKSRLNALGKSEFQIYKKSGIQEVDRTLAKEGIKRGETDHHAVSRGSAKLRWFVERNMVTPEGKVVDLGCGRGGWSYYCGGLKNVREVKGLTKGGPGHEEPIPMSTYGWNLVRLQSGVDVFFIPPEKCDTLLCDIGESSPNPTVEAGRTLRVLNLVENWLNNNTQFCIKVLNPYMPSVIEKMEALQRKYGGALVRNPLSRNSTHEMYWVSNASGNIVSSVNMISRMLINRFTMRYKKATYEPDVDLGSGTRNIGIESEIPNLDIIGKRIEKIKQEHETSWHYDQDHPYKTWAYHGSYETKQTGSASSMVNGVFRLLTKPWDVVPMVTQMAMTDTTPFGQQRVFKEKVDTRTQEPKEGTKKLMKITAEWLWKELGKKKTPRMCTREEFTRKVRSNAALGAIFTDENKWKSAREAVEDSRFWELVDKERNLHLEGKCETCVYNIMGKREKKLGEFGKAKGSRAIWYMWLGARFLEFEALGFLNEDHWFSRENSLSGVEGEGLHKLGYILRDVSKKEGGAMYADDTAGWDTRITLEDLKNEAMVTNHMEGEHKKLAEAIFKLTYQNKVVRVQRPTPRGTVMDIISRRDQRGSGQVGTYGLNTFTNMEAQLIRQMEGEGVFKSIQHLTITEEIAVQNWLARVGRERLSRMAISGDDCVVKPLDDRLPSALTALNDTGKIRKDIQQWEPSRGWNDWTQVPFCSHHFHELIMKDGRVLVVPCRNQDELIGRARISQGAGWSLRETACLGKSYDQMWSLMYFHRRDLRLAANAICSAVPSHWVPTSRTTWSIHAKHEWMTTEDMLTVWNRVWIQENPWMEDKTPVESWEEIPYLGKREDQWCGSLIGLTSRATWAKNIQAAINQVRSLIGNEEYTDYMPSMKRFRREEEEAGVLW
Melanin-concentrating hormone receptor 1, sequence (Q99705 whole entry): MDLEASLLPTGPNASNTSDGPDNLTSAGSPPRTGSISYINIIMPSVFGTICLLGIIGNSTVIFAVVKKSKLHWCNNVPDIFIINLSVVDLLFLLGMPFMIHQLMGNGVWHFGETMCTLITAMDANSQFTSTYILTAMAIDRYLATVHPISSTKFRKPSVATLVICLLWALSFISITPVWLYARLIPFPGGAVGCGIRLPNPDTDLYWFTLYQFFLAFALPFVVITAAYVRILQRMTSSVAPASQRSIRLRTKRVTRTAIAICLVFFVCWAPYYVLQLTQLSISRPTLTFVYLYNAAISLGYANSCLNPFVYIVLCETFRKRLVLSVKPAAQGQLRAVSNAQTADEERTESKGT

With `COc1cccc(/C=C2/CCC(CN(C)C)C2=O)c1` (stereo unspecified), the CC50 in the assay on Vero [1] is 22.4 µM (active). Moreover, the IC50 was 32.3 µM (inactive) in assay [2] and > 66.6 µM (inactive) at Beta-galactosidase. Further, the concentration at half-maximal activity (AC50) in [3] is 4.55 µM (active).
As for `CC(=O)n1cc(C(C[N+](=O)[O-])SCCN)c2ccccc21` (stereo unspecified), in assay [4], the EC50 was 14.2 µM (active).
As to `COc1ccc(N2C(=O)c3cccc4cccc(c34)C2=O)nn1`, the IC50 on Bcl-2-like protein 10 is > 50 µM (inactive).
Turning to `O=c1c2cc(Cl)ccc2nc(-c2ccc(Cl)c(Cl)c2)n1O`, the cytotoxic concentration (CC50) in [5] was > 20 µM (active); in assay [7], 14.2 µM (active); in [8] it was 10.9 µM (active). Also, the EC50 in assay [6] is 0.402 µM (active); with Streptococcus it was 0.949 µM (active). For the same compound, the IC50 in “cells” is 4.14 µM (active).
Take `CC(C)c1nc2oc3c(NCC4CCCO4)ncnc3c2c2c1COC(C)(C)C2` (stereo unspecified): the EC50 in [9] and in assay [10] was > 112 µM (not active) throughout. Also, the IC50 at Hexokinase HKDC1 is 3.81 µM (active).
Turning to `Cc1csc2nc(CNC(=O)CCC(=O)O)cn12`, the EC50 in assay [11] and in [12] was > 55.7 µM (not active) in each case.
In the case of `COc1ccc(Oc2c(C=O)cnn(-c3ccc(C(C)C)cc3)c2=O)cc1`, the half-maximal inhibitory concentration (IC50) in [13] was 4.8 µM (active).
Regarding `Nc1c(S(=O)(=O)O)cc(NC(=O)c2ccccc2)c2c1C(=O)c1ccccc1C2=O`, the CC50 in the assay with Vero [14] was > 40 µM (active). In addition, the IC50 in assay [2] is 26.9 µM (inactive); at Nonstructural protein 1, 13.3 µM (active); at Beta-galactosidase, > 66.6 µM (inactive); on Genome polyprotein it was 34.3 µM (active).
`CN1C(=O)/C(=C/c2cccn2-c2ccc3ccccc3c2)C(=O)NC1=S`: the EC50 in assay [6] was 5.56 µM (active); in [4] it was 12.1 µM (active); in the assay on Streptococcus, > 50 µM (not active); at Streptokinase A it was 4.97 µM (active). In [15], the AC50 is 9.42 µM (active). For the same compound, the CC50 in assay [16] was 14.5 µM (active).
For `CCCCc1c(C)nc2c(OC)cccc2c1SCC(=O)O`, the EC50 in [11] and in assay [12] was > 55.7 µM (not active) throughout.

The values above are taken from ChEMBL document CHEMBL1201862, “PubChem BioAssay data set” (2004).
